The values that follow come from ChEMBL document CHEMBL1127979, “Synthesis and anti-tumour activity of 6-methyl derivatives of flavone-8-acetic acid (FAA)” (Bioorg Med Chem Lett, 1994).

Test [1] concerns DLD-1. Put plainly: In vitro concentration required to inhibit DLD1 cells. It is filed as functional, cell-based. The following applies: Homo sapiens.
Test [2] deals with HRT-18 cell line. Put plainly: In vitro concentration required to inhibit HRT18 cells. It is filed as functional, cell-based. The settings on record: Homo sapiens.
The test system of test [3] is Mus musculus. Put plainly: In vivo antitumor activity in murine tumors at a dose of 200 mg/Kg. It is filed as functional.
The subject of test [4] is MAC15A. Put plainly: In vitro concentration required to inhibit MAC 15 A cells. It is filed as functional, cell-based. The settings on record: Mus musculus.
The subject of test [5] is HCLO cell line. Put plainly: In vitro concentration required to inhibit HCLO cells. It is filed as functional, cell-based. The settings on record: Homo sapiens.
The test system of test [6] is HCT-8. In words: In vitro concentration required to inhibit HCT18 cells. It is filed as functional, cell-based. The settings on record: Homo sapiens.
Test [7] has as its system MAC26. In words: In vitro concentration required to inhibit MAC 26 cells. It is filed as functional, cell-based. The following applies: Mus musculus.
The test system of test [8] is MAC16. In words: In vitro concentration required to inhibit MAC 16 cells. It is filed as functional, cell-based. The following applies: Mus musculus.
Test [9] deals with K562. In words: In vitro concentration required to inhibit K562 cells. It is filed as functional, cell-based. The following applies: Homo sapiens.
Test [10] relates to HT-29. In words: In vitro concentration required to inhibit HT-29 cells. The settings on record: Homo sapiens. It is filed as functional, cell-based.

The structures appear in SMILES notation. ≈ marks a conversion by molar mass, not a printed value.

As a reminder, the IC50 is the point on the concentration scale where inhibition reaches its midpoint. Low values mean greater potency in that assay, high ones weaker potency in that assay. The term inhibition in vivo denotes the drop in the measured response relative to a control, in per cent. A higher inhibition in vivo goes with strong suppression. With `O=C(O)Cc1cccc2c(=O)cc(-c3ccccc3)oc12` [MITOFLAXONE], the IC50 in [1] was greater than 500 µg/mL; in test [2], 95 µg/mL (≈ 339 µM); in test [4], 150 µg/mL (≈ 535 µM); in test [5] it was greater than 500 µg/mL; in test [6], 245 µg/mL (≈ 874 µM); in [7], 208 µg/mL (≈ 742 µM). The IC50 was found to be 180 µg/mL (≈ 642 µM) in [8], 310 µg/mL (≈ 1110 µM) in [9] and 390 µg/mL (≈ 1390 µM) in test [10]. In test [3], this compound displayed an inhibition in vivo at 200 mg/kg of 83%.
